For data set [1], the target named is T1, hEP2 (Homo sapiens, UniProt P43116). In words: hEP2 cAMP functional assay. Type of data set: cell-based. To be noted: the 3rd table; read-out: EP2 data cAMP EC50. The source says:
(§1) U.S. patent application Ser. No. 11/553,143, filed on Oct. 26, 2006, describes the methods used to obtain the in vitro data in the table below.

For data set [2], the target named is T2, hEP4 (Homo sapiens, UniProt P35408). As to the kind of experiment: hEP4 binding (Ki). The conditions noted are these: the 3rd table; read-out: EP4 data KI.
T2 sequence (P35408 whole entry): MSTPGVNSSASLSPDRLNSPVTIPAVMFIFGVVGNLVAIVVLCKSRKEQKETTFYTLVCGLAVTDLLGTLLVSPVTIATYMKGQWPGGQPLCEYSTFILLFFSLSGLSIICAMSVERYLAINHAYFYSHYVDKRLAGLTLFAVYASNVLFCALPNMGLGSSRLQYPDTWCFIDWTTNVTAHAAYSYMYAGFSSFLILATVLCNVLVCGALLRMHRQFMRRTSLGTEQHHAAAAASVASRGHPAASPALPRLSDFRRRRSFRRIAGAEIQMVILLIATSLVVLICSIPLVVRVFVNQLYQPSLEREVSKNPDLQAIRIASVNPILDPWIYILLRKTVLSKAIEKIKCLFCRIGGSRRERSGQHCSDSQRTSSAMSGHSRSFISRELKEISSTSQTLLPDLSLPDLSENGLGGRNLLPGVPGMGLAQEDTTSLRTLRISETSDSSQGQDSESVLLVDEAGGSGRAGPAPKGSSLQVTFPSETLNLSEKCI
Text: as §1

The target of data set [3] is T2, hEP4. As to the kind of experiment: hEP4 flipr functional assay. Type of data set: cell-based. To be noted: the 3rd table; read-out: EP4 data flipr EC50.
Text: as §1

The target of data set [4] is T1, hEP2. As to the kind of experiment: hEP2 binding (Ki). To be noted: the 3rd table; read-out: EP2 data Ki.
Text: as §1

Another data set addresses T3, hDP (Homo sapiens, UniProt Q13258).
T3 sequence (Q13258 1-359): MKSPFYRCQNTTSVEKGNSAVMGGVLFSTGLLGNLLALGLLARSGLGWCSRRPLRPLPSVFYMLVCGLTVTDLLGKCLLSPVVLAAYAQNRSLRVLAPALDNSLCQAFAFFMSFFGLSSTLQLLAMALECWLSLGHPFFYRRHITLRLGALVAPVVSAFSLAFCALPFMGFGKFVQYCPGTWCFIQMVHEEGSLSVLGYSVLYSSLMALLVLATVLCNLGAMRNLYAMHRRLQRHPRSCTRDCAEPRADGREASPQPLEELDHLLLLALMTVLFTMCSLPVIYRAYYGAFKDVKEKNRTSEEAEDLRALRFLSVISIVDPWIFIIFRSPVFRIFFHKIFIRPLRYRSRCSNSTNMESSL
In words: Other receptors: hDP. Format: cell-based. To be noted: the 3rd table; read-out: Other Receptors (ED50 in nM) hDP.
Text: as §1

The target in data set [5] is T1, hEP2. In words: hEP2 flipr functional assay. Format: cell-based. The conditions noted are these: the 3rd table; read-out: EP2 data flipr EC50.
Text: as §1

The next data set has as its target T4, hEP3 (Homo sapiens, UniProt P43115).
T4 sequence (P43115 1-390): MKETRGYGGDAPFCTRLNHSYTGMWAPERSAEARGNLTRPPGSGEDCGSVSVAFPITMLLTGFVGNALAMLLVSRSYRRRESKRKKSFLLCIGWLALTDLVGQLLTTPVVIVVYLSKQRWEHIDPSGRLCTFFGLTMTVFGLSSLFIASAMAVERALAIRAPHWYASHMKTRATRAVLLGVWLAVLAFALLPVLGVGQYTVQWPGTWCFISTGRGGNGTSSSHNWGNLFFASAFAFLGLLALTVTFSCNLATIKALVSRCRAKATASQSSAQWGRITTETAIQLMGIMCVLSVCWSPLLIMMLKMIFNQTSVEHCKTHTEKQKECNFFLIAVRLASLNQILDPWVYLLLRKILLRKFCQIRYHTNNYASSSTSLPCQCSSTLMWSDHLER
In words: Other receptors: hEP3 / hEP3A. Type of data set: cell-based.
Text: as §1

Data set [6] has as its system normotensive dogs. As to the kind of experiment: Intraocular pressure in normotensive dogs. Format: in vivo. To be noted: Canis lupus familiaris, topical, 120 h, once daily for 5 days, read-out: maximum IOP decrease from baseline (percent). The procedure: (§2) U.S. Pat. No. 7,091,231 describes the methods used for these in vivo tests. 5-{3-[1R,2S,3R,5R)-5-Chloro-2-(3,5-dichloro-phenoxymethyl)-3-hydroxy-cyclopentyl]-propyl}-thiophene-2-carboxylic acid was tested at multiple concentrations in normotensive dogs, dosing once daily for 5 days. At 0.1%, the maximum intraocular pressure (IOP) decrease from baseline was 7.5 mmHg (48%) at 30 h; the maximum ocular surface hyperemia (OSH) score was 2.75 at 26 h. At 0.01%, the maximum IOP decrease from baseline was 7.5 mmHg (43%) at 76 h; the maximum OSH score was 2.0 at 26 h. At 0.005%, the maximum IOP decrease from baseline was 6.6 mmHg (35%) at 78 h; the maximum OSH score was 1.75 at 74 h. This compound was also tested in laser-induced hypertensive monkeys, using one single day dose. At 0.01%, the maximum IOP decrease from baseline was 20.2 mmHg (53%) at 24 h.

Data set [7] has as its system laser-induced hypertensive monkeys. As to the kind of experiment: Intraocular pressure in laser-induced hypertensive monkeys. Format: in vivo. The conditions noted are these: one single day dose. The method, then: as §2
Data set [8] has as its system normotensive dogs. In words: Ocular surface hyperemia in normotensive dogs. Format: in vivo. The arrangement: scale not given here. The conditions noted are these: once daily for 5 days. The procedure: as §2
The mark [9] stands for this setting: the 3rd table, read-out: Other Receptors (ED50 in nM) hEP3A.

Each structure is given as a SMILES string. Where two headings read alike, the source gives them in different places.

T1 sequence (P43116 whole entry): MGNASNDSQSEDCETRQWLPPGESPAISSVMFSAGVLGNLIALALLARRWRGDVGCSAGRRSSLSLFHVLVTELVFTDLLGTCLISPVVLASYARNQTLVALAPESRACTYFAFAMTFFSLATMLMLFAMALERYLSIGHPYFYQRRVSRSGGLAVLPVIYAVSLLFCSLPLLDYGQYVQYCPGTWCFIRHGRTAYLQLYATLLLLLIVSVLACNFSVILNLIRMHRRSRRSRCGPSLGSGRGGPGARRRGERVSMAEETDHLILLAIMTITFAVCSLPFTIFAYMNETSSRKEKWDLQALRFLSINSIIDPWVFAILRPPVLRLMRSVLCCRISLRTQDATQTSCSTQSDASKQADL

A word on the Ki: it is a measure of affinity in units of concentration, obtained from inhibition or displacement. Take `O=C(O)c1ccc(CCC[C@@H]2[C@@H](COc3cc(F)cc(F)c3)[C@H](O)C[C@H]2Cl)s1` [5-(3-((1R,2S,3R,5R)-5-chloro-2-((3,5-difluorophenoxy)methyl)-3-hydroxycyclopentyl)propyl)thiophene-2-carboxylic acid]: the EC50 on hEP2 [1] was 0.3 nM; at hEP4 [3], 5290 nM; on hDP it was 12100 nM; on hEP2 [5], 216 nM; at hEP3 (setting [9]), 4140 nM. In addition, the Ki at hEP4 [2] came out at 1280 nM; at hEP2 [4], 3 nM.

For the molecule `O=C(O)c1ccc(CCC[C@@H]2[C@@H](COc3cc(F)cc(C(F)(F)F)c3)[C@H](O)C[C@H]2Cl)s1` [5-(3-((1R,2S,3R,5R)-5-chloro-2-((3-fluoro-5-(trifluoromethyl)phenoxy)methyl)-3-hydroxycyclopentyl)propyl)thiophene-2-carboxylic acid], the EC50 was determined as 0.2 nM at hEP2 [1], 12300 nM at hEP4 [3], 1150 nM on hEP2 [5] and 6820 nM at hEP3 (setting [9]). Also, the Ki at hEP4 [2] was determined as 354 nM; on hEP2 [4] it was 2.4 nM.

Consider `Cc1cc(OC[C@@H]2[C@@H](CCCc3ccc(C(=O)O)s3)[C@H](Cl)C[C@H]2O)cc(C)c1Cl` [5-(3-((1R,2S,3R,5R)-5-chloro-2-((4-chloro-3,5-dimethylphenoxy)methyl)-3-hydroxycyclopentyl)propyl)thiophene-2-carboxylic acid], for which the EC50 is 0.2 nM at hEP2 [1], more than 10000 nM on hEP4 [3], 7190 nM on hDP and 1490 nM at hEP2 [5]. Moreover, the results for the Ki on hEP4 [2] and on hEP2 [4] were 170 nM and 0.7 nM, respectively.

In the case of `O=C(O)c1ccc(CCC[C@@H]2[C@@H](COc3ccc(Cl)c4ccccc34)[C@H](O)C[C@H]2Cl)s1` [5-(3-((1R,2S,3R,5R)-5-chloro-2-((4-chloronaphthalen-1-yloxy)methyl)-3-hydroxycyclopentyl)propyl)thiophene-2-carboxylic acid], the EC50 on hEP2 [1] turned out to be 2.5 nM; at hEP4 [3], 15000 nM; on hDP, 13500 nM; at hEP2 [5], 3530 nM. Moreover, the Ki on hEP4 [2] came to 1930 nM; on hEP2 [4], 10 nM.

Regarding `O=C(O)c1ccc(CCC[C@@H]2[C@@H](COc3cccc4c3CCCC4)[C@H](O)C[C@H]2Cl)s1` [5-(3-((1R,2S,3R,5R)-5-chloro-3-hydroxy-2-((5,6,7,8-tetrahydronaphthalen-1-yloxy)methyl)cyclopentyl)propyl)thiophene-2-carboxylic acid], the EC50 at hEP2 [1] was found to be 2.5 nM; at hEP4 [3], 9830 nM; on hDP it was 8620 nM; on hEP2 [5], 175 nM; on hEP3 (setting [9]), 5790 nM. Moreover, the Ki at hEP4 [2] stood at 1460 nM; on hEP2 [4] it was 37 nM.

With `O=C(O)c1ccc(CCC[C@@H]2[C@@H](COc3cccc4ccccc34)[C@H](O)C[C@H]2Cl)s1` [5-(3-((1R,2S,3R,5R)-5-chloro-3-hydroxy-2-((naphthalen-1-yloxy)methyl)cyclopentyl)propyl)thiophene-2-carboxylic acid], the EC50 at hEP2 [1] was 0.7 nM; on hEP4 [3] it was more than 10000 nM; at hDP, 4150 nM; on hEP2 [5], 949 nM; on hEP3 (setting [9]), 4030 nM. The results for the Ki on hEP4 [2] and at hEP2 [4] were 114 nM and 5.5 nM, respectively.

As to `O=C(O)c1ccc(CCC[C@@H]2[C@@H](COc3ccccc3)[C@H](O)C[C@H]2Cl)s1` [5-(3-((1R,2S,3R,5R)-5-chloro-3-hydroxy-2-(phenoxymethyl)cyclopentyl)propyl)thiophene-2-carboxylic acid], the EC50 on hEP2 [1] stood at 3.4 nM; on hEP4 [3] it was 8420 nM; at hDP, 9090 nM; at hEP2 [5], 235 nM; at hEP3 (setting [9]), 9650 nM. In addition, the Ki at hEP4 [2] turned out to be 2320 nM; on hEP2 [4], 29 nM.

Regarding `O=C(O)CCC/C=C\C[C@@H]1[C@@H](COc2cc(Cl)cc(CO)c2)[C@H](O)C[C@H]1Cl` [(Z)-7-[(1R,2S,3R,5R)-5-Chloro-2-(3-chloro-5-hydroxymethyl-phenoxymethyl)-3-hydroxy-cyclopentyl]-hept-5-enoic acid], the inhibition in vivo at 0.1 % in the data set on normotensive dogs [6] worked out at 13.5%. Further, in data set [7] (0.1%), the “maximum IOP decrease from baseline” value was determined as 8 mmHg and the “maximum IOP decrease from baseline (percent)” value is 21%. The “maximum ocular surface hyperemia (OSH) score” value in the data set on normotensive dogs [8] (0.1%) was determined as 0.9.

For `O=C(O)c1ccc(CCC[C@@H]2[C@@H](COc3cc(Cl)cc(Cl)c3)[C@H](O)C[C@H]2Cl)s1` [Example 4, 5-{3-[(1R,2S,3R,5R)-5-Chloro-2-(3,5-dichloro-phenoxymethyl)-3-hydroxy-cyclopentyl]-propyl}-thiophene-2-carboxylic acid], the inhibition in vivo at 0.005 % with normotensive dogs [6] (0.005%) is 35%. Moreover, the inhibition in vivo at 0.01 % in the data set with normotensive dogs [6] (0.01%) was found to be 43%. Further, the inhibition in vivo at 0.1 % with normotensive dogs [6] came out at 48%. Further, the “maximum IOP decrease from baseline” value in data set [7] (0.01%) was 20.2 mmHg. In addition, in [7] (0.01%), the “maximum IOP decrease from baseline (percent)” value worked out at 53%. For the same molecule, the “maximum ocular surface hyperemia (OSH) score” value in the data set on normotensive dogs [8] (0.005%) stood at 1.75; in the data set on normotensive dogs [8] (0.01%), 2.0; with normotensive dogs [8] (0.1%), 2.75.

For the molecule `CC(C)OC(=O)CCC/C=C\C[C@@H]1[C@@H](COc2cc(Cl)cc(CO)c2)[C@H](O)C[C@H]1Cl` [Example 12, (Z)-Isopropyl 7-((1R,2S,3R,5R)-5-chloro-2-((3-chloro-5-(hydroxymethyl)phenoxy)methyl)-3-hydroxycyclopentyl)hept-5-enoate], the inhibition in vivo at 0.1 % in the data set with normotensive dogs [6] came to 33%. Besides, in [7] (0.1%), the “maximum IOP decrease from baseline” value was found to be 7.4 mmHg and the “maximum IOP decrease from baseline (percent)” value is listed as 21%. For the same molecule, the “maximum ocular surface hyperemia (OSH) score” value in the data set on normotensive dogs [8] (0.1%) came out at 0.8.

Regarding `CC(=O)OCc1cc(Cl)cc(OC[C@@H]2[C@@H](C/C=C\CCCC(=O)OC(C)C)[C@H](Cl)C[C@H]2O)c1` [Example 13, (Z)-Isopropyl 7-((1R,2S,3R,5R)-2-((3-(acetoxymethyl)-5-chlorophenoxy)methyl)-5-chloro-3-hydroxycyclopentyl)hept-5-enoate], in the data set on normotensive dogs [6], the inhibition in vivo at 0.1 % was determined as 20%. In addition, in [7] (0.1%), the “maximum IOP decrease from baseline” value is on record as 8.2 mmHg and the “maximum IOP decrease from baseline (percent)” value was 21%. In the data set on normotensive dogs [8] (0.1%), the “maximum ocular surface hyperemia (OSH) score” value was determined as 0.7.

Consider `O=C(O)CCC/C=C\C[C@@H]1[C@@H](COc2cc(Cl)cc(Cl)c2)[C@H](O)C[C@H]1Cl` [drawing 43, (Z)-7-[(1R,2S,3R,5R)-5-Chloro-2-(3,5-dichloro-phenoxymethyl)-3-hydroxy-cyclopentyl]-hept-5-enoic acid], for which the EC50 on hEP3 (the 2nd table, read-out: Other Receptors hEP3) amounted to 1260 nM.

The values above are taken from patent publication US8039496B2, “Therapeutic compounds” (Allergan, Inc., priority 2007, dated 2011).
